Where two headings read alike, the source gives them in different places. Where a SMILES comes first, the peptide text is derived from it. Bridges are numbered along the chain shown (N, C = ends). [ ]: non-standard residue; d: D form. The star is where a group is joined. d(aIle) = CC[C@H](C)[C@@H](N)C(=O)O; d(aThr) = C[C@@H](O)[C@@H](N)C(=O)O; Hexanoyl(5-Me) = CC(C)CCCC(=O)*; Orn = NCCC[C@H](N)C(=O)O; Dhb = C/C=C(\N)C(=O)O
Tests used:
Assay type in all cases: cell-based, human
A-549 = test: SRB colorimetric assay of cell growth and viability, A-549; conditions: 48 hours exposure; for GI50: read-out: GI50 A-549; for CC50: read-out: LC50 A-549
SK-MEL-28 = test: SRB colorimetric assay of cell growth and viability, SK-MEL-28; conditions: 48 hours exposure; for CC50: read-out: LC50 MEL-28
HT-29 = test: SRB colorimetric assay of cell growth and viability, HT-29; conditions: 48 hours exposure; for GI50: read-out: GI50 HT-29; for CC50: read-out: LC50 HT-29
LoVo = test: SRB colorimetric assay of cell growth and viability, LoVo; conditions: 48 hours exposure; for CC50: read-out: LC50 LOVO
LoVo-Dox = test: SRB colorimetric assay of cell growth and viability, LoVo-Dox; conditions: 48 hours exposure; for CC50: read-out: LC50 LOVO-DOX
In short: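 Tumor cells are continuously exposed to sample for 48 hours, with vehicle DMSO:EtOH:PBS (0.5:0.5:99), after an 18-hour drug-free attachment period. Bound SRB, measured at 490 nm, reflects cell mass; GI, TGI and LC are derived from triplicate means.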

DU-145 = test: SRB colorimetric assay of cell growth and viability, DU-145; conditions: 48 hours exposure
LNCaP = test: SRB colorimetric assay of cell growth and viability, LNCaP; conditions: 48 hours exposure; for CC50: read-out: LC50 LN-caP
SK-BR-3 = test: SRB colorimetric assay of cell growth and viability, SK-BR-3; conditions: 48 hours exposure
IGROV-1 = test: SRB colorimetric assay of cell growth and viability, IGROV-1; conditions: 48 hours exposure
IGROV-ET = test: SRB colorimetric assay of cell growth and viability, IGROV-ET; conditions: 48 hours exposure; for CC50: read-out: LC50 IGROV-ET
HeLa = test: SRB colorimetric assay of cell growth and viability, HeLa; conditions: 48 hours exposure; for CC50: read-out: LC50 HELA
HeLa-APL = test: SRB colorimetric assay of cell growth and viability, HeLa-APL; conditions: 48 hours exposure; for CC50: read-out: LC50 HELA-APL
K-562 = test: SRB colorimetric assay of cell growth and viability, K-562; conditions: 48 hours exposure; for CC50: read-out: LC50 K-562
PANC-1 = test: SRB colorimetric assay of cell growth and viability, PANC-1; conditions: 48 hours exposure; for CC50: read-out: LC50 PANC-1

C/C=C1\NC(=O)[C@H](Cc2c[nH]c3ccccc23)NC(=O)[C@@H](C(C)C)NC(=O)[C@@H]([C@@H](C)CC)NC(=O)[C@H](NC(=O)[C@H](NC(=O)[C@H](CCCN)NC(=O)[C@H]2CCCN2C(=O)[C@H](NC(=O)[C@@H](NC(=O)[C@@H](NC(=O)[C@H](NC(=O)CCCC(C)C)C(C)C)[C@@H](C)O)C(C)C)C(C)C)[C@@H](C)CC)[C@@H](C)OC(=O)[C@H](C(C)C)NC1=O [Compound 68, [Trp^3]-KF] ({Hexanoyl(5-Me)}-[dV]TV[dV][dP][Orn][d(aIle)][d(aThr)][d(aIle)][dV]W[Dhb]V; ester 8-C)
TGI A-549 (A-549; SRB): 2.83E−06 Molar | GI50 (A-549; SRB): 1560 nM | CC50 (A-549; SRB): 5120 nM | GI50 (SK-MEL-28; SRB): 1250 nM | TGI MEL-28 (SK-MEL-28; SRB): 2.17E−06 Molar | CC50 (SK-MEL-28; SRB): 3770 nM | TGI HT-29 (HT-29; SRB): 1.40E−06 Molar | GI50 (HT-29; SRB): 512 nM | CC50 (HT-29; SRB): 3660 nM | GI50 (LoVo; SRB): 337 nM | TGI LOVO (LoVo; SRB): 9.49E−07 Molar | CC50 (LoVo; SRB): 2620 nM | GI50 (LoVo-Dox; SRB): 281 nM | TGI LOVO-DOX (LoVo-Dox; SRB): 6.47E−07 Molar | CC50 (LoVo-Dox; SRB): 2530 nM | GI50 (DU-145; SRB): 470 nM | LC50 (concentration causing 50% net cell kill) (DU-145; SRB): 2850 nM | TGI DU-145 (DU-145; SRB): 1.21E−06 Molar | TGI LN-caP (LNCaP; SRB): 2.36E−06 Molar | GI50 (LNCaP; SRB, read-out: GI50 LN-caP): 1050 nM | CC50 (LNCaP; SRB): 5290 nM | GI50 (SK-BR-3; SRB): 150 nM | LC50 (SK-BR-3; SRB): 655 nM | TGI SK-BR-3 (SK-BR-3; SRB): 3.13E−07 Molar | GI50 (IGROV-1; SRB): 87 nM | LC50 (concentration causing 50% net cell killing) (IGROV-1; SRB): 453 nM | TGI IGROV (IGROV-1; SRB): 1.98E−07 Molar | GI50 (IGROV-ET; SRB): 150 nM | TGI IGROV-ET (IGROV-ET; SRB): 2.73E−07 Molar | CC50 (IGROV-ET; SRB): 499 nM | GI50 (HeLa; SRB): 1030 nM | TGI HELA (HeLa; SRB): 2.05E−06 Molar | CC50 (HeLa; SRB): 4040 nM | GI50 (HeLa-APL; SRB): 943 nM | TGI HELA-APL (HeLa-APL; SRB): 1.90E−06 Molar | CC50 (HeLa-APL; SRB): 3820 nM | GI50 (K-562; SRB): 3700 nM | TGI K-562 (K-562; SRB): 6.59E−06 Molar | CC50 (K-562; SRB): 6590 nM | GI50 (PANC-1; SRB): 6590 nM | TGI PANC-1 (PANC-1; SRB): 6.59E−06 Molar | CC50 (PANC-1; SRB): 6590 nM

C/C=C1\NC(=O)[C@H](Cc2ccccc2Cl)NC(=O)[C@@H](C(C)C)NC(=O)[C@@H]([C@@H](C)CC)NC(=O)[C@H](NC(=O)[C@H](NC(=O)[C@H](CCCN)NC(=O)[C@H]2CCCN2C(=O)[C@H](NC(=O)[C@@H](NC(=O)[C@@H](NC(=O)[C@H](NC(=O)CCCC(C)C)C(C)C)[C@@H](C)O)C(C)C)C(C)C)[C@@H](C)CC)[C@@H](C)OC(=O)[C@H](C(C)C)NC1=O [Compound 81, [Phe(2-Cl)^3]-KF]
TGI A-549 (A-549; A-549): 9.04E−07 Molar | GI50 (A-549; A-549): 457 nM | CC50 (A-549; A-549): 1570 nM | GI50 (SK-MEL-28; MEL-28): 362 nM | TGI MEL-28 (SK-MEL-28; MEL-28): 8.73E−07 Molar | CC50 (SK-MEL-28; MEL-28): 1680 nM | TGI HT-29 (HT-29; HT-29): 2.23E−07 Molar | GI50 (HT-29; HT-29): 102 nM | CC50 (HT-29; HT-29): 543 nM | GI50 (LoVo; LOVO): 89.2 nM | TGI LOVO (LoVo; LOVO): 1.72E−07 Molar | CC50 (LoVo; LOVO): 445 nM | GI50 (LoVo-Dox; LOVO-DOX): 70.1 nM | TGI LOVO-DOX (LoVo-Dox; LOVO-DOX): 1.20E−07 Molar | CC50 (LoVo-Dox; LOVO-DOX): 369 nM | GI50 (DU-145; DU-145): 242 nM | LC50 (concentration causing 50% net cell kill) (DU-145; DU-145): 1210 nM | TGI DU-145 (DU-145; DU-145): 6.83E−07 Molar | GI50 (LNCaP; LN-caP): 75.6 nM | TGI LN-caP (LNCaP; LN-caP): 3.87E−07 Molar | CC50 (LNCaP; LN-caP): 1270 nM | GI50 (SK-BR-3; SK-BR-3): 61.2 nM | LC50 (SK-BR-3; SK-BR-3): 664 nM | TGI SK-BR-3 (SK-BR-3; SK-BR-3): 1.18E−07 Molar | GI50 (IGROV-1; IGROV): 86.7 nM | LC50 (concentration causing 50% net cell killing) (IGROV-1; IGROV): 596 nM | TGI IGROV (IGROV-1; IGROV): 2.09E−07 Molar | GI50 (IGROV-ET; IGROV-ET): 100 nM | TGI IGROV-ET (IGROV-ET; IGROV-ET): 2.40E−07 Molar | CC50 (IGROV-ET; IGROV-ET): 639 nM | GI50 (HeLa; HELA): 199 nM | TGI HELA (HeLa; HELA): 6.33E−07 Molar | CC50 (HeLa; HELA): 1440 nM | GI50 (HeLa-APL; HELA-APL): 342 nM | TGI HELA-APL (HeLa-APL; HELA-APL): 7.87E−07 Molar | CC50 (HeLa-APL; HELA-APL): 1840 nM | GI50 (K-562; K-562): 1840 nM | TGI K-562 (K-562; K-562): 1.84E−06 Molar | CC50 (K-562; K-562): 1840 nM | GI50 (PANC-1; PANC-1): 1400 nM | TGI PANC-1 (PANC-1; PANC-1): 1.84E−06 Molar | CC50 (PANC-1; PANC-1): 1840 nM

C/C=C1\NC(=O)[C@H](Cc2ccccc2)NC(=O)[C@@H](C(C)C)NC(=O)[C@@H]([C@@H](C)CC)NC(=O)[C@H](NC(=O)[C@H](NC(=O)[C@H](CCCN)NC(=O)[C@H]2CCCN2C(=O)[C@H](NC(=O)[C@@H](NC(=O)[C@@H](NC(=O)[C@H](NC(=O)CCCC(C)C)C(C)C)[C@@H](C)O)C(C)C)C(C)C)[C@@H](C)CC)COC(=O)[C@H](C(C)C)NC1=O [Compound 3, [D-Ser^6]-KF] ({Hexanoyl(5-Me)}-[dV]TV[dV][dP][Orn][d(aIle)][dS][d(aIle)][dV]F[Dhb]V; ester 8-C)
TGI A-549 (A-549): 2.46E−06 Molar | GI50 (A-549): 1360 nM | CC50 (A-549): 4470 nM | GI50 (SK-MEL-28): 1570 nM | TGI MEL-28 (SK-MEL-28): 2.66E−06 Molar | CC50 (SK-MEL-28): 4530 nM | TGI HT-29 (HT-29): 1.22E−06 Molar | GI50 (HT-29): 378 nM | CC50 (HT-29): 3520 nM | GI50 (LoVo): 189 nM | TGI LOVO (LoVo): 3.64E−07 Molar | CC50 (LoVo): 758 nM | GI50 (LoVo-Dox): 179 nM | TGI LOVO-DOX (LoVo-Dox): 3.37E−07 Molar | CC50 (LoVo-Dox): 637 nM | GI50 (DU-145): 833 nM | LC50 (concentration causing 50% net cell kill) (DU-145): 3440 nM | TGI DU-145 (DU-145): 1.69E−06 Molar | TGI LN-caP (LNCaP): 1.12E−06 Molar | GI50 (LNCaP; read-out: GI50 LN-caP): 372 nM | CC50 (LNCaP): 2940 nM | GI50 (SK-BR-3): 406 nM | LC50 (SK-BR-3): 2450 nM | TGI SK-BR-3 (SK-BR-3): 6.23E−07 Molar | GI50 (IGROV-1): 455 nM | LC50 (concentration causing 50% net cell killing) (IGROV-1): 3160 nM | TGI IGROV (IGROV-1): 1.27E−06 Molar | GI50 (IGROV-ET): 264 nM | TGI IGROV-ET (IGROV-ET): 6.38E−07 Molar | CC50 (IGROV-ET): 2110 nM | GI50 (HeLa): 1350 nM | TGI HELA (HeLa): 2.64E−06 Molar | CC50 (HeLa): 5210 nM | GI50 (HeLa-APL): 1370 nM | TGI HELA-APL (HeLa-APL): 2.28E−06 Molar | CC50 (HeLa-APL): 3780 nM | GI50 (K-562): 5080 nM | TGI K-562 (K-562): 6.83E−06 Molar | CC50 (K-562): ≥ 6830 nM | GI50 (PANC-1): 3080 nM | TGI PANC-1 (PANC-1): 6.83E−06 Molar | CC50 (PANC-1): ≥ 6830 nM
